“Also recorded” adds a separate entry of the source. Read-outs that look alike come from different tables or passages of the source.
Legend:
[1] = Hygroscopicity of RTA 408 solid forms (DVS, TGA-MS); format: physicochemical
[2] = test system: HIV; conditions: macrophages; cited from earlier work
[3] = monkey, in vivo; cited from earlier work
[4] = test system: cerebral granule neurons; conditions: cited from earlier work
[5] = test system: CYP3A4/5; conditions: human liver microsomes and recombinantly-expressed CYPs
[6] = Phase 1 drug-drug interaction study: omaveloxolone alone and with itraconazole in healthy subjects
[7] = test system: CYP3A4/5; assay: in vitro; conditions: human, human liver microsomes
[8] = Chemical stability of RTA 408 amorphous form in organic solvents and aqueous media; format: physicochemical; conditions: 1 mg/mL; acetone, EtOAc, MeOH, MeCN, 1% aq. Tween 80, SDS, CTAB; 6 h, 24 h, 2 d, 7 d
Experimental: The chemical stability of the amorphous form was investigated in organic solvents, including acetone, EtOAc, MeOH, and MeCN, as well as different aqueous media (e.g., 1% aq. Tween 80, 1% aq. SDS, 1% aq. CTAB) at a concentration of 1 mg/mL at time points 6 h, 24 h, 2 d, and 7 d.

[9] = Storage stability of RTA 408 amorphous form under elevated temperature and humidity (PXRD); format: physicochemical; conditions: open at 25° C./62% r.h. and 40° C./75% r.h., closed at 60° C. and 80° C., up to four weeks
Experimental: In addition, the stability of the amorphous form was investigated by storage under elevated temperature and humidity conditions (open at 25° C./62% r.h. and 40° C./75% r.h. and closed at 60° C. and 80° C.). After one week, two weeks, and four weeks, the stored samples were analyzed by PXRD.

[10] = cited from earlier work; for Occurrence of Death / Occurrence of ESRD: ITT
[11] = cited from earlier work
[12] = Drug-drug interaction study: bardoxolone methyl alone and with itraconazole in healthy volunteers; conditions: itraconazole alone, 200 mg daily (Period 2)
[13] = 150 mg omaveloxolone alone (Reference), plasma
[14] = 200 mg itraconazole QD + 150 mg omaveloxolone (Test), plasma
[15] = Test vs Reference statistical analysis
[16] = Test: 200 mg itraconazole QD + 150 mg omaveloxolone, n = 13
[17] = omaveloxolone + itraconazole vs omaveloxolone alone
[18] = ASCEND, avosentan 25 mg (N = 455)
[19] = ASCEND, avosentan 50 mg (N = 478)

CC1(C)CC[C@]2(NC(=O)C(C)(F)F)CC[C@]3(C)[C@H](C(=O)C=C4[C@@]5(C)C=C(C#N)C(=O)C(C)(C)[C@@H]5CC[C@]43C)[C@@H]2C1
Hygroscopicity, mass gain ([1]; from 50% r.h. to 85% r.h.): ~0.7 wt.-%

CC1(C)CC[C@]2(C(=O)O)CC[C@]3(C)[C@H](C(=O)C=C4[C@@]5(C)C=C(C#N)C(=O)C(C)(C)[C@@H]5CC[C@]43C)[C@@H]2C1 [CDDO, 2-cyano-3,12-dioxooleane-1,9(11)-dien-28-oic acid]
Replication of HIV [2]: can inhibit the replication of HIV in macrophages

COC(=O)[C@]12CCC(C)(C)C[C@H]1[C@H]1C(=O)C=C3[C@@]4(C)C=C(C#N)C(=O)C(C)(C)[C@@H]4CC[C@@]3(C)[C@]1(C)CC2 [Form B CDDO-Me]
Oral bioavailability [3]: higher than that of Form A

CC1(C)CC[C@]2(NC(=O)C(C)(F)F)CC[C@]3(C)[C@H](C(=O)C=C4[C@@]5(C)C=C(C#N)C(=O)C(C)(C)[C@@H]5CC[C@]43C)[C@@H]2C1 [Omaveloxolone]
Protection from hydrogen peroxide-induced oxidative stress [4]: significant protection | Metabolizing enzyme [5]: metabolized by CYP3A4 | AUC0-t, geometric mean [6, 13]: 1730 ng·h/mL | AUC0-∞, geometric mean [6, 13]: 1730 ng·h/mL | CL/F, geometric mean [6, 13]: 86.7 L/h | Cmax, geometric mean [6, 13]: 43.0 ng/mL | t1/2, geometric mean [6, 13]: 89.8 h | Increase in systemic exposure, AUC0-∞, with itraconazole ([6]; 150 mg, itraconazole 200 mg QD): approximately 4 fold | Increase in systemic exposure, Cmax, with itraconazole ([6]; 150 mg, itraconazole 200 mg QD): ~3 fold | Ratio (90% CI) of geometric LS means, AUC0-∞ (with itraconazole vs alone) ([6]; 150 mg, itraconazole 200 mg QD): 4.12 (3.48, 4.87) | Ratio (90% CI) of geometric LS means, Cmax (with itraconazole vs alone) ([6]; 150 mg, itraconazole 200 mg QD): 2.77 (2.17, 3.54) | AUC0-t, geometric mean [6, 14]: 6340 ng·h/mL | AUC0-∞, geometric mean [6, 14]: 7280 ng·h/mL | CL/F, geometric mean [6, 14]: 20.6 L/h | Cmax, geometric mean [6, 14]: 116 ng/mL | t1/2, geometric mean [6, 14]: 78.1 h | AUC0-∞, GLSM ([6]; Reference: 150 mg omaveloxolone alone, n = 14): 1730 ng·h/mL | Cmax, GLSM ([6]; Reference: 150 mg omaveloxolone alone, n = 15): 43.0 ng/mL | AUC0-∞, Within-subject CV % [6, 15]: 24.4% | Cmax, Within-subject CV % [6, 15]: 36.8% | AUC0-∞, GLSM [6, 16]: 7130 ng·h/mL | Cmax, GLSM [6, 16]: 119 ng/mL | half-life ([6]; both, human, plasma, oral, 150 mg): 89.8 h | Tmax ([6]; both, human, plasma, oral, 150 mg, Median Tmax (min-max), 150 mg single dose, alone): 12 h | Tmax ([6]; both, human, plasma, oral, 150 mg, tmax, median, Reference: 150 mg omaveloxolone alone, n = 15, Wilcoxon signed rank analysis): 8 h | Tmax ([6]; both, human, plasma, oral, Median Tmax (min-max), 150 mg co-administered with 200 mg itraconazole QD): 6 h | Tmax ([6]; both, human, plasma, oral, tmax, median, Test: 200 mg itraconazole QD + 150 mg omaveloxolone, n = 13, Wilcoxon signed rank analysis): 6 h | Within-subject variability of AUC0-∞, geometric CV % ([6]; human, in vivo): 24.4% | Within-subject variability of Cmax, geometric CV % ([6]; human, in vivo): 36.8% | AUC0-∞, Ratio of GLSMs (Test:Reference) [6, 17]: 4.12 | Cmax, Ratio of GLSMs (Test:Reference) [6, 17]: 2.77 | Subjects reporting TEAEs ([6]; omaveloxolone alone, 15 subjects): 2 subjects | Subjects reporting TEAEs ([6]; omaveloxolone in combination with itraconazole): no subjects reported TEAEs | Clinical laboratory evaluations, vital signs, ECG parameters ([6]; whole study): no clinically significant findings | Deaths or SAEs ([6]; whole study): no deaths or SAEs | Km [7]: 1.12 µM

CC1(C)CC[C@]2(NC(=O)C(C)(F)F)CC[C@]3(C)[C@H](C(=O)C=C4[C@@]5(C)C=C(C#N)C(=O)C(C)(C)[C@@H]5CC[C@]43C)[C@@H]2C1 [RTA 408 amorphous form]
Hygroscopicity, Δm ([1]; DVS, 50%→85% r.h.): +0.4% | Chemical stability, decomposition [8]: Decomposition ≥1% was observed only for solutions in MeCN after 7 days and for suspensions in the 1% aqueous Tween 80 medium | Stability under elevated temperature and humidity conditions [9]: stable for at least four weeks; also recorded: None of the samples differed from the amorphous starting material

COc1ccccc1Oc1c(NS(=O)(=O)c2ccc(C)cn2)nc(-c2ccncc2)nc1OC [avosentan]
Occurrence of Death [10, 18]: 3.6% | Occurrence of ESRD [10, 18]: 4.4% | Occurrence of Death [10, 19]: 4.6% | Occurrence of ESRD [10, 19]: 5.0% | Death ([10]; ASCEND): modest, non-significant increase in death | ESRD events ([10]; ASCEND): small, numerical reduction in ESRD events | Risk of congestive heart failure (CHF) ([10]; human, in vivo): approximate three-fold increase

CCC(C)n1ncn(-c2ccc(N3CCN(c4ccc(OCC5COC(Cn6cncn6)(c6ccc(Cl)cc6Cl)O5)cc4)CC3)cc2)c1=O (stereo not shown) [itraconazole]
Peak plasma level at steady state ([11]; 100 mg once daily): 0.5 µg/mL | Peak plasma level at steady state ([11]; 200 mg once daily): 1.1 µg/mL | Peak plasma level at steady state ([11]; 200 mg twice daily): 2.0 µg/mL | Renal excretion of itraconazole and hydroxy-itraconazole ([11]; in vivo): less than 1 % of an intravenous dose | Time to peak steady state ([11]; repeated administration): about 15 days | Subjects with a TEAE, n (%) [12]: 1 (6.7%)

Reference: patent publication US20240293351A1, “METHODS OF ADMINISTERING SYNTHETIC TRITERPENOIDS” (REATA PHARMACEUTICALS HOLDINGS, LLC, priority 2020, published 2024)
